This is an account of results in US20230355599A1, “BIOMARKERS FOR CBL, AND COMPOSITIONS AND METHODS FOR THEIR USE” (NURIX THERAPEUTICS, INC., priority 2022, published 2023).

One may read the EC50 as the concentration at which the effect is half-maximal.

What all share (format): cell-based
One experiment has as its system phosphorylated PLCγ2. The experiment can be described thus: Phosphorylated PLCγ2 in human CD8+ T cells from whole blood in vitro (flow cytometry). As to conditions: T-cell, whole blood from six human donors, 2 hrs 37° C., anti-CD3/anti-CD28 + crosslinker 60 minutes, read-out: Average mean EC50±standard deviation, phosphorylated PLCγ2. How it is done: (§1) To assess these candidate clinical proximal biomarkers of Cbl-b inhibition on T cells, pharmacodynamic analysis was performed. Whole blood was obtained from human donors and incubated with increasing concentrations of Compound 23. The response to Cbl-b inhibition on phosphorylated HS1, PLCγ2, and ZAP70 was measured in CD8^+ T cells using flow cytometry. This technique is highly quantitative and can measure multiple phosphorylation markers in different cell populations within the same sample.
(§2) For pharmacodynamic analysis, whole blood was obtained from six human donors (BioIVT) and used for flow cytometry assays to evaluate phosphorylated biomarkers HS1, PLCγ2, and ZAP70 in CD8^+ T cells.
(§3) Whole blood was collected in a collection tube coated with sodium heparin. […]
(§4) Stained cells were run on an Attune NxT Acoustic Focusing Flow Cytometer (Thermo Fisher, cat. No. A29004), and data was analyzed using FlowJo (v10.6.1) and GraphPad Prism (v8.00) software. Single lymphocytes were gated for CD8^+ cells (CD45^+/CD8^+) cells, and population frequencies were calculated for each population. The data is quantified by the percent positive. […] As protein becomes phosphorylated the fluorescence increases resulting in a larger fraction of the cells entering that gate. Each population was evaluated for % positive pY759-PLCγ2, pY397-HS1 levels, pY319/Syk (Y352)-ZAP70 levels.
On the technique in general: Flow cytometry measures light scatter and fluorescence of single cells or particles in a stream.

A further experiment deals with phosphorylated HS1. The experiment can be described thus: Phosphorylated HS1 in human CD8+ T cells from whole blood in vitro (flow cytometry). How it is done:
as §1, §2, §3
as §4, with “levels. […]” for “levels.”

Another experiment deals with pY319-Zap70. As to the kind of experiment: Phosphoprotein screen in human whole blood with CBL inhibitor at 10 uM: ZAP70. The settings on record: 1 hr 37° C., human whole blood 8 donors, anti-CD3/CD28 + crosslinker 60 minutes. How it is done: (§5) To identify proximal biomarkers of CBL-B inhibition in immune cells, a panel of phosphorylated proteins were screened in human whole blood incubated with CBL-B inhibitor and concomitant anti-CD3 and anti-CD28 antibodies. The effect of CBL-B inhibition was assessed across multiple cellular signaling networks.
(§6) Human heparinized whole blood from 8 donors was received after an overnight shipment at 4° C. The blood was plated, treated with CBL inhibitor at 10 uM and incubated at 37° C. for 60 minutes. After incubation, the cells were stimulated with anti-CD3/CD28 followed by a cross-linking antibody (30 μg of goat anti-mouse IgG (H+L) antibody (Invitrogen)). After 60 minutes, the cells were fixed, and stained using surface markers for T cells (CD3^+CD4^+& CD3^+CD8^+) and analyzed by flow cytometry for target phosphorylation of the following markers: pY180/pY511-ITK, pY397-HS1, pY759-PLCg2, pY783-PLCg1, pY525/pY526/pY348-SYK & pY319-Zap70.
(§7) Fold change of each biomarker was calculated with the following example equation: […]
(§8) Whole blood from eight human donors was collected in sodium heparin anti-coagulant treated with 10 μM of Compound 23 for 1 hr at 37° C. […] Fold change of % phosphorylation normalized to DMSO was quantitated in T cells (CD8^+) using flow cytometry is provided in FIGS. 6A-6B.

A further experiment relates to pY759-PLCg2. The experiment can be described thus: Phosphoprotein screen in human whole blood with CBL inhibitor at 10 uM: PLCγ2. As to conditions: 1 hr 37° C., human whole blood 8 donors, anti-CD3/CD28 + crosslinker 60 minutes. How it is done: as §5, §6, §7, §8

Turning to `C[C@H]1CCCN(Cc2cc3c(c(C(F)(F)F)c2)CN(c2cccc([C@]4(c5nncn5C)C[C@@H](C)C4)c2)C3=O)C1` [Compound 23], the EC50 in the experiment with phosphorylated PLCγ2 is 74 ± 4.95 nM; with phosphorylated HS1 (T-cell, whole blood from six human donors, 2 hrs 37° C., anti-CD3/anti-CD28 + crosslinker 60 minutes, CD8+ T cells, read-out: Average mean EC50±standard deviation, phosphorylated HS1), 89 ± 7.91 nM. In addition, the “phosphorylated HS1 in human whole blood (FIG. 7)” value in the experiment on phosphorylated HS1 (human donors n=6, two hours at 37° C., anti-CD3 and anti-CD28 co-stimulation, crosslinked) was “concentration-dependent increase”. Further, the “increased phosphorylation of ZAP70 compared to DMSO control” value with pY319-Zap70 is recorded as 2-3 fold. The “increased phosphorylation of PLCγ2 compared to DMSO control” value with pY759-PLCg2 is 3-4 fold.
